Data reported in patent US12098109B2, “Reaction methods for producing nitrogenous phosphoryl compounds that are in situ fluid compositions” (SOILGENIC TECHNOLOGIES, LLC, priority 2021, dated 2024).
Read-outs that look alike come from different tables or passages of the source. One block for each compound: values may come before it.

Key:
[1] = Stability by top clear layer after 3 days @ 50 C; type: physicochemical
Procedure: (§1) Stability was determined by the measurement of the top clear layer after 3 days @ 50° C. Flowability was determined by measuring the elapsed time that it took for 4 grams of the 5 gram sample to flow out of a container with a 0.9 cm opening @ 25° C.

[2] = Flowability by elapsed flow-out time; type: physicochemical
Procedure: as §1

[3] = 1% dispersibility in water, 1 gram of sample in 99 grams of water
[4] = tested on: West Texas Soil (Estacado Clay Loam); experiment: Ammonia generation from treated urea on soil, headspace NH3 by Draeger am-5000 meter; conditions: for Measuring Ammonia Generation, Days Ran 3: day 3; for Measuring Ammonia Generation, Days Ran 4: day 4; for Measuring Ammonia Generation, Days Ran 5: day 5; for Measuring Ammonia Generation, Days Ran 6: day 6; for Measuring Ammonia Generation, Days Ran 7: day 7; for Measuring Ammonia Generation, Days Ran 10: day 10; for Measuring Ammonia Generation, Days Ran 11: day 11; for Measuring Ammonia Generation, Days Ran 13: day 13
[5] = Sedimentation of inorganic chloride particles of Example 14 after adding organic liquids; type: physicochemical
[6] = tested on: West Texas Soil (Estacado Clay Loam); experiment: Ammonia generation, N Yield vs N Yield + NH4Cl solutions with urea dropped onto soil sample; conditions: in the presence of NBPT
[7] = tested on: West Texas Soil (Estacado Clay Loam); experiment: NH4Cl vs DCD as nitrification inhibitor, ammonia generation from treated urea; conditions: compared to DCD
[8] = 4% organic liquid added to Example 56, top clear layer after 3 days @ 50 C
[9] = 4% organic liquid added to Example 56, time for 4 grams of 5 gram sample to flow out of 0.9 cm opening @ 25 C
[10] = 4% organic liquid added to Example 56
[11] = organic liquid added to Example 56 at a 4% level
[12] = One Month Storage of treated urea
[13] = Two Month Storage of treated urea

- Clear layer (cm) [1, 8]: 0.3 cm
- seconds (flowability) [2, 9]: 3.85 s
- 1% dispersibility in water rating [3, 10]: 6
Compound: CC1(C)OCC(CO)O1 (stereo not drawn) [2,2-dimethyl-l,3-dioxolane-4-methanol, 2,2-dimethyl-1,3-dioxolane-4-methanol]
- effect on Example 56's dispersibility in water [3, 11]: improve Example 56's dispersibility in water significantly

Compound: CCCCNP(N)(N)=S [NBPT, N-(n-butyl)-thiophosphoric triamide]
- Measuring Ammonia Generation, Days Ran 3 ([4]; Initial): 9 ppm
- Measuring Ammonia Generation, Days Ran 4 ([4]; Initial): 10 ppm
- Measuring Ammonia Generation, Days Ran 5 ([4]; Initial): 4 ppm
- Measuring Ammonia Generation, Days Ran 6 ([4]; Initial): 4 ppm
- Measuring Ammonia Generation, Days Ran 7 ([4]; Initial): 14 ppm
- Measuring Ammonia Generation, Days Ran 10 ([4]; Initial): 97 ppm
- Measuring Ammonia Generation, Days Ran 11 ([4]; Initial): 88 ppm
- Measuring Ammonia Generation, Total ([4]; Initial, total of days 3-11): 226 ppm
- Measuring Ammonia Generation, Days Ran 3 [4, 12]: 111 ppm
- Measuring Ammonia Generation, Days Ran 4 [4, 12]: 51 ppm
- Measuring Ammonia Generation, Days Ran 5 [4, 12]: 57 ppm
- Measuring Ammonia Generation, Days Ran 6 [4, 12]: 98 ppm
- Measuring Ammonia Generation, Days Ran 7 [4, 12]: 236 ppm
- Measuring Ammonia Generation, Days Ran 10 [4, 12]: 349 ppm
- Measuring Ammonia Generation, Days Ran 11 [4, 12]: 251 ppm
- Measuring Ammonia Generation, Days Ran 12 ([4]; One Month Storage of treated urea, day 12): 301 ppm
- Measuring Ammonia Generation, Days Ran 13 [4, 12]: 153 ppm
- Measuring Ammonia Generation, Total ([4]; One Month Storage of treated urea, total of days 3-13): 1607 ppm
- Measuring Ammonia Generation, Days Ran 1 ([4]; Two Month Storage of treated urea, day 1): 103 ppm
- Measuring Ammonia Generation, Days Ran 5 [4, 13]: 99 ppm
- Measuring Ammonia Generation, Days Ran 6 [4, 13]: 32 ppm
- Measuring Ammonia Generation, Days Ran 7 [4, 13]: 129 ppm
- Measuring Ammonia Generation, Days Ran 8 ([4]; Two Month Storage of treated urea, day 8): 159 ppm
- Measuring Ammonia Generation, Days Ran 9 ([4]; Two Month Storage of treated urea, day 9): 130 ppm
- Measuring Ammonia Generation, Days Ran 13 [4, 13]: 152 ppm
- Measuring Ammonia Generation, Days Ran 14 ([4]; Two Month Storage of treated urea, day 14): 66 ppm
- Measuring Ammonia Generation, Days Ran 15 ([4]; Two Month Storage of treated urea, day 15): 49 ppm
- Measuring Ammonia Generation, Days Ran 16 ([4]; Two Month Storage of treated urea, day 16): 68 ppm
- Measuring Ammonia Generation, Total ([4]; Two Month Storage of treated urea, total): 884 ppm

- Clear layer in inches of a 4 inch sample ([5]; 8 grams added/25 grams of Example 14, within 24 hours of standing): <1 inches
- Clear layer in inches of a 4 inch sample ([5]; 25 grams added/25 grams of Example 14, within 24 hours of standing): 1 inches
- Clear layer (cm) [1, 8]: 0 cm
- seconds (flowability) [2, 9]: 20.3 s
- 1% dispersibility in water rating [3, 10]: 4
Compound: C[S+](C)[O-] [dimethyl sulfoxide]

- Clear layer (cm) [1, 8]: 0.45 cm
- seconds (flowability) [2, 9]: 2.49 s
- 1% dispersibility in water rating [3, 10]: 3
Compound: CN1CCCC1=O [N-methyl pyrrolidone]

Compound: CCOP(=O)(OCC)OCC [triethyl phosphate]
- Clear layer in inches of a 4 inch sample [5]: 0 inches
- Clear layer (cm) [1]: 0.4 cm
- seconds (flowability) [2]: 4.03 s
- 1% dispersibility in water rating [3]: 6
- effect on Example 56's dispersibility in water [3]: improve Example 56's dispersibility in water significantly

Compound: butyl carbonate
- Clear layer in inches of a 4 inch sample [5]: 0 inches

- Clear layer (cm) [1, 8]: 0.4 cm
- seconds (flowability) [2, 9]: 2.35 s
- 1% dispersibility in water rating [3, 10]: 6
Compound: OCC(O)CO [Glycerin]
- effect on Example 56's dispersibility in water [3, 11]: improve Example 56's dispersibility in water significantly

Compound: Cl.N [NH4Cl, ammonium chloride]
- behaviour in ammonia generation test [6]: performing as a nitrification inhibitor
- performance as a nitrification inhibitor [7]: equivalent to DCD

- Clear layer in inches of a 4 inch sample ([5]; 2 grams added/25 grams of Example 14, within 24 hours of standing): 0 inches
Compound: CC[N+](C)(CC)CC.[Cl-] [triethyl methyl ammonium chloride]
